# Key:
# [1] = target: T1, wt human LRRK2, catalytic site (Homo sapiens, UniProt Q5S007); test: TR-FRET LanthaScreen Tb Kinase Activity Assay, LRRK2 kinase inhibition; assay type: biochemical; conditions: 2 nM wt human LRRK2, 400 nM peptide, 38 μM ATP
# T1 construct: wt human LRRK2, catalytic site, catalytic site (ThermoFisher/USA); purchased ThermoFisher
# How it was run: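 TR-FRET LanthaScreen format: 2 nM wt human LRRK2 catalytic domain with 400 nM fluorescein-ERM (LRRKtide) and 38 μM ATP in Kinase Buffer A, after 15 min compound preincubation. Reaction 120 min at RT, then EDTA plus Tb-anti-pLRRKtide antibody for 60 min; emission ratios analysed per kit protocol.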
# [2] = test system: Caco-2 cells; test: Caco-2 bidirectional permeability; assay type: in vitro ADME; conditions: for Caco-2 A2B (10^−6 cm/s): A to B; for Caco-2 A2B (10^−6 cm/s) / Caco-2 B2A (10^−6 cm/s): HBSS pH 7.4, 2 hours; for Caco-2 B2A (10^−6 cm/s): B to A; for Caco-2 ER: Efflux Ratio=Papp (BA)/Papp (AB)
# How it was run: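 Caco-2 monolayers grown 21–28 days on PET inserts were run in duplicate in HBSS with 10 mM HEPES, pH 7.4. Compound was tested in both directions at […] for 2 h at 37 °C and quantified by LC-MS/MS. Papp, % recovery and efflux ratio (B-A/A-B) were calculated, with lucifer yellow checking monolayer integrity.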
# T1 sequence (Q5S007 1879-2138 limits assumed): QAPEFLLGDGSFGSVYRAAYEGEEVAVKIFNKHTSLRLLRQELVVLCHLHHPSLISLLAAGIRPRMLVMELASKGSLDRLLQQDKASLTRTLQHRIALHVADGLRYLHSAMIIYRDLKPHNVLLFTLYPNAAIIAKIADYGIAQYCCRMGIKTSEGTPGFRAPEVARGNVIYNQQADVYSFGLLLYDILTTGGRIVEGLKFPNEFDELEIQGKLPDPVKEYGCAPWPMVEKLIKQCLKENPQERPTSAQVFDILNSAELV
Compound,IC50 [1] [nM],Caco-2 A2B (10^−6 cm/s) [2],Caco-2 B2A (10^−6 cm/s) [2],Caco-2 ER [2]
"[2H]C1([2H])OC([2H])([2H])C([2H])([2H])N(c2ccc3c(c2)-c2[nH]nc(C)c2N=C(c2c(F)cccc2F)N3)C1([2H])[2H] [Example 22, 2,2,3,3,5,5,6,6-octadeuterio-4-[5-(2,6-difluorophenyl)-3-methyl-1,6-dihydropyrazolo[4,3-d][1,3]benzodiazepin-9-yl]morpholine]",< 2,H (H (High permeability)”: A2B (B2A)>5),H (H (High permeability)”: A2B (B2A)>5),N (N (Non-substrate)”: ER<2.5)
"Cc1n[nH]c2c1N=C(c1c(F)cccc1F)Nc1ccc(N3CCO[C@H](C)C3)cc1-2 [Example 7, (R)-4-(5-(2,6-difluorophenyl)-3-methyl-1,6-dihydrobenzo[d]pyrazolo[3,4-f][1,3]diazepin-9-yl)-2-methylmorpholine]",< 2,H (H (High permeability)”: A2B (B2A)>5),H (H (High permeability)”: A2B (B2A)>5),N (N (Non-substrate)”: ER<2.5)
"Cc1n[nH]c2c1N=C(c1c(F)cccc1F)Nc1cnc(C#CC3(C)CCOCC3)cc1-2 [Example 17, 8-(2,6-difluorophenyl)-5-methyl-13-[2-(4-methyltetrahydropyran-4-yl)ethynyl]-3,4,7,9,12-pentazatricyclo[8.4.0.02,6]tetradeca-1(10),2(6),4,7,11,13-hexaene]",< 2,M (M (Moderate permeability)”: 1≤A2B (B2A)≤5),H (H (High permeability)”: A2B (B2A)>5),L (L (Likely)”: ER>2.5)
"Cc1n[nH]c2c1N=C(c1c(F)cccc1F)Nc1cnc(-c3ccn(C(F)F)n3)cc1-2 [Example 12, 13-[1-(difluoromethyl)pyrazol-3-yl]-8-(2,6-difluorophenyl)-5-methyl-3,4,7,9,12-pentazatricyclo[8.4.0.02,6]tetradeca-1(10),2(6),4,7,11,13-hexaene]",< 2,H (H (High permeability)”: A2B (B2A)>5),H (H (High permeability)”: A2B (B2A)>5),N (N (Non-substrate)”: ER<2.5)
"Cc1n[nH]c2c1N=C(c1c(F)cccc1F)Nc1c-2cc(N2CC3(CCOCC3)C2)nc1C [Example 47, 2-[8-(2,6-difluorophenyl)-5,11-dimethyl-3,4,7,9,12-pentazatricyclo[8.4.0.02,6]tetradeca-1(10),2(6),4,7,11,13-hexaen-13-yl]-7-oxa-2-azaspiro[3.5]nonane]",< 2,M (M (Moderate permeability)”: 1≤A2B (B2A)≤5),H (H (High permeability)”: A2B (B2A)>5),L (L (Likely)”: ER>2.5)
"Cc1n[nH]c2c1N=C(c1c(F)cc(F)cc1F)Nc1ccc(N3CCOCC3)cc1-2 [Example 27, 4-[3-methyl-5-(2,4,6-trifluorophenyl)-1,6-dihydropyrazolo[4,3-d][1,3]benzodiazepin-9-yl]morpholine]",2 to 100,H (H (High permeability)”: A2B (B2A)>5),H (H (High permeability)”: A2B (B2A)>5),N (N (Non-substrate)”: ER<2.5)

# Continued, values first:
IC50 [1] [nM],Caco-2 A2B (10^−6 cm/s) [2],Caco-2 B2A (10^−6 cm/s) [2],Caco-2 ER [2],Compound
< 2,H (H (High permeability)”: A2B (B2A)>5),H (H (High permeability)”: A2B (B2A)>5),N (N (Non-substrate)”: ER<2.5),"Cc1n[nH]c2c1N=C(c1c(F)cccc1F)N1CCc3nc(N4CCOCC4)cc-2c31 [Example 42, 4-[8-(2,6-difluorophenyl)-5-methyl-3,4,7,9,13-pentazatetracyclo[7.6.1.02,6.012,16]hexadeca-1(16),2(6),4,7,12,14-hexaen-14-yl]morpholine]"
< 2,H (H (High permeability)”: A2B (B2A)>5),H (H (High permeability)”: A2B (B2A)>5),N (N (Non-substrate)”: ER<2.5),"Cn1nccc1-c1cc2c(cn1)NC(c1c(F)cccc1F)=Nc1c(Cl)n[nH]c1-2 [Example 59, 3-chloro-5-(2,6-difluorophenyl)-9-(1-methyl-1H-pyrazol-5-yl)-1,6-dihydropyrazolo[4,3-d]pyrido[4,3-f][1,3]diazepine]"
< 2,H (H (High permeability)”: A2B (B2A)>5),H (H (High permeability)”: A2B (B2A)>5),N (N (Non-substrate)”: ER<2.5),"[2H]C([2H])([2H])c1n[nH]c2c1N=C(c1c(F)cccc1F)Nc1ccc(N3CCOCC3)cc1-2 [Example 33, 4-[5-(2,6-difluorophenyl)-3-(trideuteriomethyl)-1,6-dihydropyrazolo[4,3-d][1,3]benzodiazepin-9-yl]morpholine]"
< 2,H (H (High permeability)”: A2B (B2A)>5),H (H (High permeability)”: A2B (B2A)>5),N (N (Non-substrate)”: ER<2.5),"[2H]C([2H])([2H])c1n[nH]c2c1N=C(c1c(F)cccc1F)Nc1ccc(N3CCO[C@@H](C)C3)cc1-2 [Example 34, (2S)-4-[5-(2,6-difluorophenyl)-3-(trideuteriomethyl)-1,6-dihydropyrazolo[4,3-d][1,3]benzodiazepin-9-yl]-2-methyl-morpholine]"

# Reference: patent US20240208972A1, “LRRK2 INHIBITORS AND USES THEREOF” (NEURON23, INC., priority 2022, published 2024)
